According to PMC8903829 (eLife, 2022):
“And” between values parts separate entries of the source, which are not always exact repeats. Equal entries are not always repeated. “Also recorded” adds a separate entry of the source.

Columns and labels:
hNaV1.1 = molecular target: T1, hNaV1.1 (Homo sapiens, UniProt P35498); experiment: Qube 384 automated patch-clamp, inactivated-state inhibition; assay type: cell-based
T1 construct: expression vector containing the full-length cDNA coding for specific human and mouse sodium channel α-subunit; expressed in transfected cells

mNaV1.6 = molecular target: T2, mNaV1.6 (Mus musculus, UniProt Q9WTU3); experiment: as above; assay type: cell-based
T2 construct: expression vector containing the full-length cDNA coding for specific human and mouse sodium channel α-subunit; expressed in transfected cells

[1] = molecular target: T3, N1768D NaV1.6 persistent currents (Homo sapiens, UniProt Q9UQD0, N1768D); experiment: Persistent current inhibition; assay type: cell-based
T3 construct: expression vector containing the full-length cDNA coding for specific human and mouse sodium channel α-subunit; expressed in transfected cells; host or cells: Expi293F (transient, tetracycline-induced, pcDNA4/TO)
From the text: Elevated persistent and or resurgent currents are believed to underlie or contribute to the pathology of many sodium channel related pathologies ([Mason et al., 2019]; [Pan and Cummins, 2020]; [Potet et al., 2020]; [Tidball et al., 2020]; [Zaman et al., 2019]). In most conditions, normal NaV1.6 channels inactivate rapidly and nearly completely after opening.
Inorm(CPD)=(ICPD−Icontrol)/(ITTX−Icontrol).

[2] = test system: fast spiking interneurons; experiment: Current-clamp recording in brain slices, action-potential firing; assay type: cell-based, mouse; conditions: for Fast spiking interneurons APs/1s: 0.25 μM, individual neurons; for Cumulative number of action potentials fired by each cell on increasing current injections: 250 nM, fast spiking interneurons
Procedure: Parasagittal cortical brain slices were prepared from> P21 mice using standard procedures (adapted from Tai et al., PNAS 2014). Briefly, the mouse was deeply anaesthetized with isoflurane and decapitated. The brain was removed and placed into chilled artificial cerebrospinal fluid (aCSF) solution containing (in mM): 125 NaCl, 25 NaHCO3, 2.5 KCl, 1.25 NaH2PO4, 2 CaCl2, 2 MgCl2, 10 d-glucose, pH 7.3, osmolarity adjusted to ~306 mOsm using sucrose. All solutions were saturated with 95% O2 and 5% CO2 constantly perfused with 95% O2/5% CO2. Slices with a thickness of 400 µm were prepared using a vibratome (Ted Pella, Inc). Following sectioning, the slices were placed in a holding chamber and incubated in a water bath at 34 °C for 15 min. The brain slices were removed from the water bath and held at room temperature for 60 min prior to recording.
All experiments involving rodent subjects were performed in accordance with the guidelines of the Canadian Council on Animal Care (CCAC). Following a 60-min incubation at room temperature, a brain slice was selected and placed on the stage of an upright microscope (SliceScope Pro 2000, Scientifica). The slice was constantly perfused with room temperature aCSF, containing 0.1% DMSO as a vehicle control, and oxygenated with 95% O2/5% CO2.The slice was visualized using brightfield microscopy, and a healthy neuron was selected from neocortical layer 5. […] Stimulation was applied in current-clamp mode, and consisted of a series of 1000ms square pulses, beginning at –20 pA and increasing by +20 pA increments (3000ms between pulses).
The slice was incubated in circulating compound for 10 min before repeating the series of square pulse stimulations. Working stock solutions were prepared in DMSO at a concentration of 20 mM.
All data analysis was done offline using ClampFit 10.7 (Molecular Devices). Data are presented as a mean ± SEM. For each sweep, the number of evoked APs was counted, and plotted as a function of current injection (beginning with –20 pA). […] Statistical significance was assessed using paired, two-way, student’s t-test applied at each current injection level with significance considered p < 0.05.

[3] = parameters: method as in Beatch et al., 2020; conditions: humans; ref Beatch et al., 2020; cited from earlier work

T2 sequence (Q9WTU3 whole entry): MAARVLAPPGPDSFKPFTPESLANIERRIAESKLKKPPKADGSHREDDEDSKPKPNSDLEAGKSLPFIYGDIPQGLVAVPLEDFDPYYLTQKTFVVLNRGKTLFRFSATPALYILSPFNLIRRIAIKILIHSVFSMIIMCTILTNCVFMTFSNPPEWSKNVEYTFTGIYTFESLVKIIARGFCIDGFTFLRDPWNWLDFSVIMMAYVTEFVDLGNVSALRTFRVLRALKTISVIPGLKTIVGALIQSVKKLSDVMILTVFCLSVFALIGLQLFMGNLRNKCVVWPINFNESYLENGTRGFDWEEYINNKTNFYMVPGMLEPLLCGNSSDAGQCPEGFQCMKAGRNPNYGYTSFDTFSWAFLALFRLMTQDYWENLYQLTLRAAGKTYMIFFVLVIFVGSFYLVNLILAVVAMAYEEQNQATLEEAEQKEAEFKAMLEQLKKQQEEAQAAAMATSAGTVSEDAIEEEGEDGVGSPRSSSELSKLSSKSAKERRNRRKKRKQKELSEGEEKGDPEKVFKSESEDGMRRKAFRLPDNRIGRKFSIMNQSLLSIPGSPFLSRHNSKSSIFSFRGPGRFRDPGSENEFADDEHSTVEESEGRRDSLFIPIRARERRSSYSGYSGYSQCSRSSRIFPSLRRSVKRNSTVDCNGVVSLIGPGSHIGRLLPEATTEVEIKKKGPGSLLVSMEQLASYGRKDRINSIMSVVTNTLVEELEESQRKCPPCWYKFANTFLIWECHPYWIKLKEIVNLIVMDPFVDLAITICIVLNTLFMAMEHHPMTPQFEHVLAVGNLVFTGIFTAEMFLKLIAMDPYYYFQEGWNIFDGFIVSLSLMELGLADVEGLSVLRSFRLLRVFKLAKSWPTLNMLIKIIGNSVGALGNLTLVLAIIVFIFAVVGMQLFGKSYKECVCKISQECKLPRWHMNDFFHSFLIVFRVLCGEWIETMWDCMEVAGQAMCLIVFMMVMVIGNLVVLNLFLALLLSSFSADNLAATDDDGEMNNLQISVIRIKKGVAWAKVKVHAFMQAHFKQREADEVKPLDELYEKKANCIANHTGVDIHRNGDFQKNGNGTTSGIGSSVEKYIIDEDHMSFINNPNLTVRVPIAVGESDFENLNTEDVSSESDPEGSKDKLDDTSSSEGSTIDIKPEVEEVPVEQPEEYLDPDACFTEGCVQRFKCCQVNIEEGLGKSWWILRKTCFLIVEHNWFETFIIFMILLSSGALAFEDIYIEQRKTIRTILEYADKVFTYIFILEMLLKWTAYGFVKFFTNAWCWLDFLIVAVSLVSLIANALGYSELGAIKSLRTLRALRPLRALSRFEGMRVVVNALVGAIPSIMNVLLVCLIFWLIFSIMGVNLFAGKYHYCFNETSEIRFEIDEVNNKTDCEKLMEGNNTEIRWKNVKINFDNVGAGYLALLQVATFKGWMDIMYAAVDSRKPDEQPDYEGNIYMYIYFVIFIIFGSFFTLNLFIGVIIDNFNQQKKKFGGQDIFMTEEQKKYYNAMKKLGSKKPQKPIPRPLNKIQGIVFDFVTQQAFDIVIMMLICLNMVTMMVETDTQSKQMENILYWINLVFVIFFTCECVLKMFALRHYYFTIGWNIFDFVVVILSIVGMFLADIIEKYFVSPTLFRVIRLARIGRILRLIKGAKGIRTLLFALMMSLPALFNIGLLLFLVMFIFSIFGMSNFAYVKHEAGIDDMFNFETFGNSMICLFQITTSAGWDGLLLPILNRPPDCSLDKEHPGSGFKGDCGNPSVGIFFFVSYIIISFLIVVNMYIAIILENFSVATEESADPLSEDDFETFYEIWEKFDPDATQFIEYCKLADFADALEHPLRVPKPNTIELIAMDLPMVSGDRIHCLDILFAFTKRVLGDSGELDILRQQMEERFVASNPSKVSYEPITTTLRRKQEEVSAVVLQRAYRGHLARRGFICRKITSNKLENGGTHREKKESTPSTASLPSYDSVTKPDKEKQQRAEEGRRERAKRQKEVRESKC
T2 sequence (Q92913 1-192 isoform Q92913-2 partner): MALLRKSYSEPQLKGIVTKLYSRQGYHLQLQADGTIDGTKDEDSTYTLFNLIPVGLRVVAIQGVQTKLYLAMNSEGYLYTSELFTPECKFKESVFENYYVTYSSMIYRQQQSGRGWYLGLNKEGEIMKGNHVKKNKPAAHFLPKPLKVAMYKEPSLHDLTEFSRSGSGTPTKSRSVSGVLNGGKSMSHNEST
T3 sequence (Q9UQD0 whole entry N1768D): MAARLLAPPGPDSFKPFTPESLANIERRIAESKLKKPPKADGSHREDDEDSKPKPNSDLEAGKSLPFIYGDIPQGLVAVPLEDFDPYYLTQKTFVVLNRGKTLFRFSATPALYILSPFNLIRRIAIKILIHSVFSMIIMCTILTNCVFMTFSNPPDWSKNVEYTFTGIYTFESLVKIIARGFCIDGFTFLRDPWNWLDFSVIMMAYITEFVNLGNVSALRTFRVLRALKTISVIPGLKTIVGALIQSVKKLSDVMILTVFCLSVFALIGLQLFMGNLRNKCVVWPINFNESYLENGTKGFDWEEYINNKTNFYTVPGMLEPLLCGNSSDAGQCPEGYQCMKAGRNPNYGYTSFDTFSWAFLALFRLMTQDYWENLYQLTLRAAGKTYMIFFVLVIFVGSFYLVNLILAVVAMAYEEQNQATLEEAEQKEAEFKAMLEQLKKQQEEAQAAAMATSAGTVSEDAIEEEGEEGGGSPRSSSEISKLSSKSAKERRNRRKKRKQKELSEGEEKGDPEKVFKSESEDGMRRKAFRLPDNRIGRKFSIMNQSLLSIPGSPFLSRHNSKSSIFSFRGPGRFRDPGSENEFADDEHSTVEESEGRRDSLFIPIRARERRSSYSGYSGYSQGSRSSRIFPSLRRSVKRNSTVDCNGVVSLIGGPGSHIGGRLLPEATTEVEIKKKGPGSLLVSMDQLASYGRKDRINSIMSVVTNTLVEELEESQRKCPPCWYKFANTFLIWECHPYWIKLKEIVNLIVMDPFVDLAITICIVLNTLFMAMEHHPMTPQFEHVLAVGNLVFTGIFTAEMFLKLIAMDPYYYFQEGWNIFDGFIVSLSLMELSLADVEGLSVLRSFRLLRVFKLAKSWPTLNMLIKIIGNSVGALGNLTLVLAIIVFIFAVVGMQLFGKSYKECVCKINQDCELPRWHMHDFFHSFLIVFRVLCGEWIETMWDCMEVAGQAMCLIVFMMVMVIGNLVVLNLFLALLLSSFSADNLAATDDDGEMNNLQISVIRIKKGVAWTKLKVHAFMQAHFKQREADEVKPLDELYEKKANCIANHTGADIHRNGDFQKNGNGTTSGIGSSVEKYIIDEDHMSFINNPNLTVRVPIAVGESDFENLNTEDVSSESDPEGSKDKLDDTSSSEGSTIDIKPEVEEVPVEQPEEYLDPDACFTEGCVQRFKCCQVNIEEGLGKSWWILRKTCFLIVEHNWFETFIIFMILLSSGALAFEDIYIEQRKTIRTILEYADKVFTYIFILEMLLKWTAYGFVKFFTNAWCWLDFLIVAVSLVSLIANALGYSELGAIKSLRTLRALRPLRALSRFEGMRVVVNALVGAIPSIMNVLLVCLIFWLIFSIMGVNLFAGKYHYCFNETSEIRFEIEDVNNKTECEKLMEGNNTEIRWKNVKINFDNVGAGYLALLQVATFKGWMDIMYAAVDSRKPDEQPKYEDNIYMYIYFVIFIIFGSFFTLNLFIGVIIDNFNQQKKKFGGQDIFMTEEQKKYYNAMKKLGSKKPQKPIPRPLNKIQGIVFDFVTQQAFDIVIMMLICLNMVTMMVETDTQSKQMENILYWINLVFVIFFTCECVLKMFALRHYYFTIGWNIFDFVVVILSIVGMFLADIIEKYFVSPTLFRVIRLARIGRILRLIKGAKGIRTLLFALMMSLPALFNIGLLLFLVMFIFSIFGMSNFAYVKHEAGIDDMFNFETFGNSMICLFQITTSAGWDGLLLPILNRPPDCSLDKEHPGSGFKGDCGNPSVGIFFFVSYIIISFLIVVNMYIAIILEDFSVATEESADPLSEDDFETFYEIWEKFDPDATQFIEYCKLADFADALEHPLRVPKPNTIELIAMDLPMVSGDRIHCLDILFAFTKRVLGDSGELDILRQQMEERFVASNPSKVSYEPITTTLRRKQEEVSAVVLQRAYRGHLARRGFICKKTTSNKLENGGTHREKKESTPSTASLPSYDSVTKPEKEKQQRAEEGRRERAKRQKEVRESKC
T3 sequence (Q92913 1-192 isoform Q92913-2 partner): as the sequence (Q92913 1-192 isoform Q92913-2 partner) above

Q: What does the source list for `Cc1cc(S(=O)(=O)Nc2cscn2)c(F)cc1N(C)[C@H]1CCN(Cc2ccccc2)C1` [NBI-921352]?
A: hNav1.1 current in (352)/(Vehicle), mean (hNaV1.1; -4 Log M): 0.68; hNav1.1 current in (352)/(Vehicle), mean (hNaV1.1; -4.30103 Log M): 0.57; hNav1.1 current in (352)/(Vehicle), mean (hNaV1.1; -4.47713 Log M): 0.44; hNav1.1 current in (352)/(Vehicle), mean (hNaV1.1; -4.77814 Log M): 0.3; hNav1.1 current in (352)/(Vehicle), mean (hNaV1.1; -4.95425 Log M): 0.25; hNav1.1 current in (352)/(Vehicle), mean (hNaV1.1; -5.25524 Log M): 0.16; hNav1.1 current in (352)/(Vehicle), mean (hNaV1.1; -5.43133 Log M): 0.12; hNav1.1 current in (352)/(Vehicle), mean (hNaV1.1; -5.73236 Log M): 0.07; hNav1.1 current in (352)/(Vehicle), mean (hNaV1.1; -5.90833 Log M): 0.07; hNav1.1 current in (352)/(Vehicle), mean (hNaV1.1; -6.20971 Log M): 0.04; hNav1.1 current in (352)/(Vehicle), mean (hNaV1.1; -6.3851 Log M): 0.03; hNav1.1 current in (352)/(Vehicle), mean (hNaV1.1; -6.68613 Log M): 0.05; hNav1.1 current in (352)/(Vehicle), mean (hNaV1.1; -6.86328 Log M): 0.01; hNav1.1 current in (352)/(Vehicle), mean (hNaV1.1; -7.16115 Log M): 0.04; hNav1.1 current in (352)/(Vehicle), mean (hNaV1.1; -7.33724 Log M): 0; hNav1.1 current in (352)/(Vehicle), mean (hNaV1.1; -7.63827 Log M): 0.01; mNaV1.6 current (352)/(Vehicle) (mNaV1.6; -5 Log M): 0.92; mNaV1.6 current (352)/(Vehicle) (mNaV1.6; -5.47716 Log M): 0.9; mNaV1.6 current (352)/(Vehicle) (mNaV1.6; -5.95429 Log M): 0.84; mNaV1.6 current (352)/(Vehicle) (mNaV1.6; -6.91009 Log M): 0.63; mNaV1.6 current (352)/(Vehicle) (mNaV1.6; -7.38722 Log M): 0.48; mNaV1.6 current (352)/(Vehicle) (mNaV1.6; -7.85387 Log M): 0.27; mNaV1.6 current (352)/(Vehicle) (mNaV1.6; -8.30103 Log M): 0.12; IC50 (mNaV1.6; Vh -45 mV): 58 nM; N1768D current in (352)/(Vehicle), Persistent, mean ([1]; -5 Log M): 0.93; N1768D current in (352)/(Vehicle), Persistent, mean ([1]; -5.47712 Log M): 0.92; N1768D current in (352)/(Vehicle), Persistent, mean ([1]; -5.95424 Log M): 0.91; N1768D current in (352)/(Vehicle), Persistent, mean ([1]; -6.43136 Log M): 0.87; N1768D current in (352)/(Vehicle), Persistent, mean ([1]; -6.90848 Log M): 0.63; N1768D current in (352)/(Vehicle), Persistent, mean ([1]; -7.38561 Log M): 0.44; N1768D current in (352)/(Vehicle), Persistent, mean ([1]; -7.86274 Log M): 0.21; N1768D current in (352)/(Vehicle), Persistent, mean ([1]; -8.33989 Log M): 0; IC50 ([1]; non-inactivating current 10ms after initiation of test pulse): 59 nM; effect on action-potential firing, fast-spiking interneurons ([2]; 0.25 µM NBI-921352): trend toward slightly increased firing frequency; also recorded: no significant effect; Fast spiking interneurons APs/1s ([2]; 220 pA current injected): 51 APs/1s and 58 APs/1s and 67 APs/1s; Fast spiking interneurons APs/1s ([2]; current injected 0 pA): 0 APs/1s; Fast spiking interneurons APs/1s ([2]; current injected 20 pA): 0 APs/1s; Fast spiking interneurons APs/1s ([2]; current injected 40 pA): 0 APs/1s; Fast spiking interneurons APs/1s ([2]; current injected 60 pA, row): 0 APs/1s (2×) and 17 APs/1s; Fast spiking interneurons APs/1s ([2]; current injected 80 pA, row): 0 APs/1s and 1 APs/1s and 25 APs/1s; Fast spiking interneurons APs/1s ([2]; current injected 100 pA, row): 20 APs/1s and 25 APs/1s and 33 APs/1s; Fast spiking interneurons APs/1s ([2]; current injected 120 pA, row): 28 APs/1s and 33 APs/1s and 39 APs/1s; Fast spiking interneurons APs/1s ([2]; current injected 140 pA, row): 34 APs/1s and 40 APs/1s and 45 APs/1s; Fast spiking interneurons APs/1s ([2]; current injected 160 pA, row): 38 APs/1s and 46 APs/1s and 52 APs/1s; Fast spiking interneurons APs/1s ([2]; current injected 180 pA, row): 43 APs/1s and 50 APs/1s and 57 APs/1s; Fast spiking interneurons APs/1s ([2]; current injected 200 pA, row): 47 APs/1s and 55 APs/1s and 62 APs/1s; Fast spiking interneurons APs/1s ([2]; current injected 220 pA, row): 51 APs/1s and 58 APs/1s and 67 APs/1s; Fast spiking interneurons APs/1s ([2]; current injected 240 pA, row): 55 APs/1s and 62 APs/1s and 73 APs/1s; Fast spiking interneurons APs/1s ([2]; current injected 260 pA, row): 58 APs/1s and 65 APs/1s and 77 APs/1s; Fast spiking interneurons APs/1s ([2]; current injected 280 pA, row): 61 APs/1s and 70 APs/1s and 82 APs/1s; Fast spiking interneurons APs/1s ([2]; current injected 300 pA, row): 65 APs/1s and 73 APs/1s and 86 APs/1s; Fast spiking interneurons APs/1s ([2]; current injected 320 pA, row): 68 APs/1s and 76 APs/1s and 89 APs/1s; Fast spiking interneurons APs/1s ([2]; current injected 340 pA, row): 70 APs/1s and 80 APs/1s and 96 APs/1s; Fast spiking interneurons APs/1s ([2]; current injected 360 pA, row): 73 APs/1s and 83 APs/1s and 100 APs/1s; Fast spiking interneurons APs/1s ([2]; current injected 380 pA, row): 74 APs/1s and 83 APs/1s and 100 APs/1s; Fast spiking interneurons APs/1s ([2]; current injected 400 pA, row): 75 APs/1s and 86 APs/1s and 103 APs/1s; Fast spiking interneurons APs/1s ([2]; current injected 420 pA, row): 77 APs/1s and 87 APs/1s and 101 APs/1s; Fast spiking interneurons APs/1s ([2]; current injected 440 pA, row): 77 APs/1s and 88 APs/1s and 103 APs/1s; Fast spiking interneurons APs/1s ([2]; current injected -20 pA): 0 APs/1s; Cumulative number of action potentials fired by each cell on increasing current injections ([2]; up to current injected 0 pA): 0; Cumulative number of action potentials fired by each cell on increasing current injections ([2]; up to current injected 20 pA): 0; Cumulative number of action potentials fired by each cell on increasing current injections ([2]; up to current injected 40 pA): 0; Cumulative number of action potentials fired by each cell on increasing current injections ([2]; up to current injected 140 pA, listed as NBI-921252): 82 and 99 and 159; Cumulative number of action potentials fired by each cell on increasing current injections ([2]; up to current injected 160 pA, listed as NBI-921252): 120 and 145 and 211; Cumulative number of action potentials fired by each cell on increasing current injections ([2]; up to current injected 180 pA, listed as NBI-921252): 163 and 195 and 268; Cumulative number of action potentials fired by each cell on increasing current injections ([2]; up to current injected 200 pA, listed as NBI-921252): 210 and 250 and 330; Cumulative number of action potentials fired by each cell on increasing current injections ([2]; up to current injected 220 pA, listed as NBI-921252): 261 and 308 and 397; Cumulative number of action potentials fired by each cell on increasing current injections ([2]; up to current injected 240 pA, listed as NBI-921252): 316 and 370 and 470; Cumulative number of action potentials fired by each cell on increasing current injections ([2]; up to current injected 260 pA, listed as NBI-921252): 374 and 435 and 547; Cumulative number of action potentials fired by each cell on increasing current injections ([2]; up to current injected 280 pA, listed as NBI-921252): 435 and 505 and 629; Cumulative number of action potentials fired by each cell on increasing current injections ([2]; up to current injected 300 pA, listed as NBI-921252): 500 and 578 and 715; Cumulative number of action potentials fired by each cell on increasing current injections ([2]; up to current injected 320 pA, listed as NBI-921252): 568 and 654 and 804; Cumulative number of action potentials fired by each cell on increasing current injections ([2]; up to current injected 340 pA, listed as NBI-921252): 638 and 734 and 900; Cumulative number of action potentials fired by each cell on increasing current injections ([2]; up to current injected 360 pA, listed as NBI-921252): 711 and 817 and 1000; Cumulative number of action potentials fired by each cell on increasing current injections ([2]; up to current injected 380 pA, listed as NBI-921252): 785 and 900 and 1100; Cumulative number of action potentials fired by each cell on increasing current injections ([2]; up to current injected 400 pA, listed as NBI-921252): 860 and 986 and 1203; Cumulative number of action potentials fired by each cell on increasing current injections ([2]; up to current injected 420 pA, listed as NBI-921252): 937 and 1073 and 1304; Cumulative number of action potentials fired by each cell on increasing current injections ([2]; up to current injected 440 pA, listed as NBI-921252): 1014 and 1161 and 1407; Cumulative number of action potentials fired by each cell on increasing current injections ([2]; up to current injected -20 pA): 0; half-life of elimination [3]: approximately 8.5 hr
